Measurements reported in patent US20240392231A1, “BACTERIOLYSIS METHOD AND BACTERIA DETECTION METHOD” (ASAHI KASEI KABUSHIKI KAISHA, priority 2021, published 2024).

Key:
Escherichia coli (EC) = assay: Bacteriolysis and immunochromatographic detection, test line intensity by image processing; type: cell-based
Procedure: (§1) Escherichia coli (EC) was selected as the Gram-negative bacteria and Staphylococcus aureus (SA) as the Gram-positive bacteria, and each was dissolved in saline to prepare a solution with a concentration of 1e5 cfu/ml. Normal saline was also used as the bacteria-free solution.
(§2) 0.1M Tris-HCl (pH 7.4) buffer was mixed with 2.0 μg/ml of lysostaphin enzyme (the final concentration after mixing with the bacterial solution for evaluation (sample) was 1.0 μg/ml) and 0.2 mass % Tween20 for immunochromatographic development and used as a mother solution to prepare various reaction solutions with DDAO concentrations of from 0 to 0.5 mass % (the final concentrations after mixing with the bacterial solution for evaluation (sample) were 0 to 0.25 mass %) or benzalkonium chloride concentrations of 0 to 0.5 mass % (the final concentrations after mixing with the bacterial solution for evaluation (sample) were 0 to 0.25 mass %).
(§3) Bacterial lysis and detection performance by antigen-antibody reaction were evaluated by inserting the immunochromatographic test strip prepared in Example 1 into a 1:1 mixture of the bacterial solution for evaluation and the various reaction solutions described above. The evaluation was made by photographing the test line area with a camera and quantifying the degree of redness of the test line area due to gold colloids via image processing (from the RGB values, the G value was used as indicating the red absorption. This is indicated as “test line intensity” in the graphs below). A higher test line intensity indicates a higher degree of redness, and a test line intensity of 10 or higher is considered visually positive.

[1] = system: Staphylococcus aureus (SA); assay: as above; type: cell-based
Procedure: as §1, §2, §3
To see the effect of lysostaphin, Staphylococcus aureus (SA) was dissolved in saline to prepare a solution with a concentration of 1e6 cfu/ml. Normal saline was also used as the bacteria-free solution.
0.1M Tris-HCl (pH 7.4) buffer was mixed with DDAO at a concentration 0.15 mass % (the final concentration after mixing with the bacterial solution for evaluation (sample) was 0.075 mass %) or benzalkonium chloride at a concentration of 0.05 mass % (the final concentration after mixing with the bacterial solution for evaluation (sample) was 0.025 mass %) as well as 0.2 mass % of Tween20 for immunochromatographic development and used as a mother solution to prepare various reaction solutions with lysostaphin enzyme concentrations of 0 to 50 μg/ml (the final concentration after mixing with the bacterial solution for evaluation (sample) were 0 to 25 μg/ml).
Bacterial lysis and detection performance by antigen-antibody reaction (test line intensity) were evaluated by inserting the immunochromatographic test strip prepared in Example 1 into a 1:1 mixture of the bacterial solution for evaluation and the various reaction solutions described above.

Molecule: benzalkonium chloride
- test line intensity EC (Escherichia coli (EC); final benzalkonium chloride exceeding 0.075 mass %, FIG. 3): decrease in test line intensity
- bacteriolysis efficiency and test line intensity EC (Escherichia coli (EC); final benzalkonium chloride up to 0.075 mass % vs none, lysostaphin 1.0 μg/ml, 1e5 cfu/ml, FIG. 3): higher bacteriolysis efficiency and test line intensity
- test line intensity SA ([1]; final benzalkonium chloride 0 to 0.065 mass %, lysostaphin 1.0 μg/ml, 1e5 cfu/ml, FIG. 3): increased
- test line intensity SA ([1]; final benzalkonium chloride exceeding 0.07 mass %, FIG. 3): decreased

Molecule: CCCCCCCCCCCC[N+](C)(C)[O-] [DDAO, N,N-dimethyldodecylamine N-oxide]
- test line intensity EC (Escherichia coli (EC); higher final concentrations of DDAO vs absence of DDAO, lysostaphin 1.0 μg/ml, 1e5 cfu/ml, FIG. 2): higher test line intensities
- test line intensity SA ([1]; final DDAO 0 to 0.05 mass %, lysostaphin 1.0 μg/ml, 1e5 cfu/ml, FIG. 2): increased
- test line intensity SA ([1]; final DDAO above 0.1 mass %, lysostaphin 1.0 μg/ml, 1e5 cfu/ml, FIG. 2): decreased
- test line intensity SA ([1]; final DDAO between 0.05 and 0.1 mass %, lysostaphin 1.0 μg/ml, 1e5 cfu/ml, FIG. 2): remained almost constant

Molecule: lysostaphin: bacteriolysis enzyme, protein hydrolysis enzyme
- test line intensity SA ([1]; lysostaphin final concentration exceeding 0.01 μg/ml, DDAO 0.075 mass %, 1e6 cfu/ml, FIG. 4): high test line intensity
- test line intensity SA ([1]; lysostaphin final concentration exceeding 0.01 μg/ml, benzalkonium chloride 0.025 mass %, 1e6 cfu/ml, FIG. 5): high test line intensity
